The record followed here is publication PMC12948223, “HSP70 Interactome‐Mediated Proteolysis Targeting Chimera (HSP70‐PROTAC) for Ferroptosis‐Driven Cancer Treatment” (Advanced Science, 2025).

SMILES strings stand for the structures.

Test [1] has as its target T1, GPX4 (Homo sapiens, UniProt P36969).
T1 sequence (P36969 1-170 isoform P36969-2): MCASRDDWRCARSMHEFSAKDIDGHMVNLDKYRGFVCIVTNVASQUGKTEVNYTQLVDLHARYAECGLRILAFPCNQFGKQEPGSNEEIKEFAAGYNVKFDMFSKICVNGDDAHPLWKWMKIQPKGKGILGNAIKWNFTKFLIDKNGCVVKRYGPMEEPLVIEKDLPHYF
The experiment in a line: Quantitative proteomics of HT1080 cells. It counts as cell-based. Set-up: determine the changes in the endogenous levels of GPX4 by western blot assay; endogenous in cells; host or cells: HT1080 fibrosarcoma cells, including siRNA-knockdown derivatives. The settings on record: 2 µM, 18 h. As for the experimental part:
The proteomics data were generated by Shanghai Bioprofile Co., Ltd. After treatment with compound GDAz‐3 (2 µM) or DMSO for 18 h, the samples were collected. LC‐MS/MS analysis was conducted using an Orbitrap Astral zoom mass spectrometer paired with a Vanquish Neo UHPLC system (Thermo Fisher Scientific). Peptides from each sample were loaded into a column (50 cm Low‐Load µPAC Neo HPLC Column, Thermo Scientific) at a flow rate of 2.2 µL min^−1. The reversed‐phase high‐performance liquid chromatography (RP‐HPLC) mobile phases consisted of solvent A (0.1% formic acid in water) and solvent B (0.1% formic acid in 80% acetonitrile). Peptide elution was performed over 4.8 min with a linear gradient of buffer B at a flow rate 1.25 µL min^−1. The linear gradient was programmed as follows: 0–0.1 min, an increase from 4% to 6% solvent B; 0.1–1.1 min, from 6% to 12% buffer B; 1.1–4.3 min, from 12% to 25% buffer B; 4.3–6.1 min, from 25% to 45% buffer B; 6.1–6.5 min, from 45% to 99% buffer B; 6.5–8 min, buffer B maintained at 99%. The eluted peptides were subsequently analyzed on a Orbitrap Astral mass spectrometer. The DIA method consisted of a full scan m/z range of 380–980 at resolution 240 000 with AGC target of 500% and 5 ms injection time. […] Full MS scan spectra were recorded in profile mode, whereas DIA scan spectra were collected in centroid mode.

In test [2] the target is T2, GPX4 (Homo sapiens, UniProt P36969).
T2 construct: purchased Cayman 26 906
T2 sequence (P36969 28-197 limits assumed): T1 sequence (P36969 1-170 isoform P36969-2)
In words: SPR binding to GPX4 recombinant protein. The procedure: The SPR data was generated by our Shared Instrumentation Core Facility at the Hangzhou Institute of Medicine (HIM), Chinese Academy of Sciences. The in vitro binding affinity of compound GDAz‐3 to recombinant proteins (Hsc70, MedChemExpress, #HY‐P73915A; GPX4, Cayman, Item No. 26 906) was evaluated using a Biacore 8K system (Cytiva (GE)) with the method of LMW multi‐cycle kinetics/affinity. Pipelines and chips were flushed with PBS (pH 7.4) running buffer, and then, human Hsc70 was immobilized on a CM5 sensor chip. Analysis was performed at a flow rate of 30 µL min^−1 at 25 °C with the injection of incremental concentrations of compounds dissolved in buffer solution (the final concentration of DMSO was 5%). For ternary‐complex binding measurements, Hsc70 was immobilized on a CM5 sensor chip, and compound GDAz‐3 at a concentration of 1 µM was preincubated with GPX4. The binding and dissociation durations were recorded as response unit values for 120 and 120 s in succession, respectively. Finally, the data were analyzed by Biacore evaluation software with the method of LMW multi‐cycle kinetics/affinity.
A general note: SPR reads the build-up and loss of mass on a sensor chip optically.

On to `COc1ccc(-c2nc(-c3cc(C(F)(F)F)cc(C(F)(F)F)c3)n(Cc3ccc(C(=O)NCCOCCOCCOCCn4cc(COc5ccc(N(C(=O)CCl)C(C(=O)NCCc6ccccc6)c6cccs6)cc5Cl)nn4)cc3)c2-c2ccc(OC)cc2)cc1` (centres unmarked) [GDAz-3, 4-((2-(3,5-bis(trifluoromethyl)phenyl)-4,5-bis(4-methoxyphenyl)-1H-imidazol-1-yl)methyl)-N-(2-(2-(2-(2-(4-((2-chloro-4-(2-chloro-N-(2-oxo-2-(phenethylamino)-1-(thiophen-2-yl)ethyl)acetamido)phenoxy)methyl)-1H-1,2,3-triazol-1-yl)ethoxy)ethoxy)ethoxy)ethyl)benzamide], for which, on GPX4 [1], the “Proteomics profiling, GPX4 abundance” value is reported as “clear degradation of GPX4”. The Kd on GPX4 [2] amounted to 1170 nM.

As a reminder, the Kd is the concentration at which binding is half-saturated.
